In patent US20240238293A1, “COMBINED PHARMACEUTICAL PREPARATION FOR TREATING A TERMINAL NON-SMALL CELL LUNG CANCER PATIENT WITH BRAIN METASTASIS” (DELTA-FLY PHARMA, INC., priority 2020, published 2024):
“Also recorded” adds a separate entry of the source.

What was measured:
[1] = Phase II clinical trial of concurrent low-dose Ubenimex and low-dose Afatinib: adverse effects; type: in vivo, human patients; details: within the combination (FIG. 2)
Experimental: To patients with non-small cell lung cancer having a mutation in the epidermal growth factor receptor (EGFR) gene, 10 mg/day of Ubenimex in a single dose unit (free form) and 20 mg/day of Afatinib (Giotrif®, dimaleate) in a single dose unit were administered in concurrently once a day until no antitumor effects would be exerted. The therapeutic effects and reduction of adverse effects were then inspected. […]

[2] = Afatinib 40 mg/day alone; terminal (stage III to IV) NSCLC patients; 229 patients, phase III; cited from earlier work

CN(C)CC=CC(=O)Nc1cc2c(Nc3ccc(F)c(Cl)c3)ncnc2cc1O[C@H]1CCOC1 [Afatinib, N-[4-[(3-chloro-4-fluorophenyl)amino]-7-[[(3S)-tetrahydro-3-furanyl]oxy]-6-quinazolinyl]-4-(dimethylamino)-2-butenamide]
adverse effects of Afatinib at about 20 mg/day, such as diarrhea or rashes ([1]; about 20 mg/day in a single dose unit): substantially no adverse effects | adverse effects, such as diarrhea and rashes [2]: likely to appear; also recorded: likely to be caused

CC(C)C[C@H](NC(=O)[C@@H](O)[C@H](N)Cc1ccccc1)C(=O)O [Ubenimex, (2S)-2-[(2S,3R)-3-amino-2-hydroxy-4-phenylbutanoylamino]-4-methylpentanoic acid]
adverse effects of Ubenimex at about 10 mg/day ([1]; about 10 mg/day in a single dose unit): substantially no adverse effects
